System: purified human Hsp90
Test: Binding Assay: fluorescence polarization with BODIPY-labeled geldanamycin
Conditions: 5 μM compound, BODIPY-GM 10 nM, Hsp90 30 nM
Summary of the method: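 Fluorescence polarization competition with BODIPY-geldanamycin (10 nM final) and human Hsp90 (30 nM final) in HEPES-KOH pH 7.3 buffer with molybdate, NP-40, DTT; 2% DMSO, overnight at room temperature. Read 485/530 nm; percent inhibition from mP normalized to DMSO controls, fluorescent-compound points excluded.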

**Q.** For `COc1ccc(OC)c(Sc2nc3c(N)ncn(CCc4cccc(Cl)c4Cl)c-3n2)c1` [Example 74, 3-[2-(2,3-dichloro-phenyl)-ethyl]-8-(2,5-dimethoxy-phenylsulfanyl)-3H-purin-6-ylamine], which “% Inhibition at 5 μM Compound Concentration” value (shortened to “% Inhibition”) is on record?
**A.** 0%

**Q.** With `COc1ccc(OC)c(Sc2nc3c(N)ncnc3n2CCc2ccc(O)cc2)c1` [Example 76, 4-{2-[6-amino-8-(2,5-dimethoxy-phenylsulfanyl)-purin-9-yl]-ethyl}-phenol] as the compound, how does the “% Inhibition” value read?
**A.** 6%

**Q.** `COc1ccc(OC)c(Sc2nc3c(N)ncn(CCc4cccc(Br)c4)c-3n2)c1` [Example 78, 3-[2-(3-bromo-phenyl)-ethyl]-8-(2,5-dimethoxy-phenylsulfanyl)-3H-purin-6-ylamine] was tested. Which “% Inhibition” value did it give?
**A.** 17%

**Q.** Which “% Inhibition” value does the source give for `COc1ccc(OC)c(Sc2nc3c(N)ncn(CCc4cccc(C(F)(F)F)c4)c-3n2)c1` [Example 80, 8-(2,5-dimethoxy-phenylsulfanyl)-3-[2-(3-trifluoromethyl-phenyl)-ethyl]-3H-purin-6-ylamine] here?
**A.** 10%

**Q.** For `COc1ccc(OC)c(Sc2nc3c(N)ncnc3n2CCc2ccc(C(=O)O)cc2)c1` [Example 81, 4-{2-[6-Amino-8-(2,5-dimethoxy-phenylsulfanyl)-purin-9-yl]-ethyl}-benzoic acid], which “% Inhibition” value is on record?
**A.** 23%

**Q.** For `COc1ccc(OC)c(Sc2nc3c(N)ncn(CCc4ccc(C(=O)O)cc4)c-3n2)c1` [Example 82, 4-{2-[6-Amino-8-(2,5-dimethoxy-phenylsulfanyl)-purin-3-yl]-ethyl}-benzoic acid], which “% Inhibition” value is on record?
**A.** 5%

**Q.** How did the “% Inhibition” value turn out when `COc1ccc(OC)c(Sc2nc3c(N)ncn(Cc4ccc(F)cc4)c-3n2)c1` [Example 83, 8-(2,5-Dimethoxy-phenylsulfanyl)-3-(4-fluoro-benzyl)-3H-purin-6-ylamine] was run?
**A.** 0%

**Q.** `COc1ccc(OC)c(Sc2nc3c(N)ncnc3n2Cc2ccc([N+](=O)[O-])cc2)c1` [Example 84, 8-(2,5-Dimethoxy-phenylsulfanyl)-9-(4-nitro-benzyl)-9H-purin-6-ylamine] was tested. Which “% Inhibition” value did it give?
**A.** 0%

**Q.** How did the “% Inhibition” value turn out when `CCC(Cn1c(Sc2cc(OC)ccc2OC)nc2c(N)ncnc21)c1ccccc1` (stereo not shown) [Example 87, 8-(2,5-Dimethoxy-phenylsulfanyl)-9-(2-phenyl-butyl)-9H-purin-6-ylamine] was run?
**A.** 12%

**Q.** `COc1ccc(OC)c(Sc2nc3c(N)ncn(CCc4cc(OC)c(OC)c(OC)c4)c-3n2)c1` [Example 90, 8-(2,5-Dimethoxy-phenylsulfanyl)-3-[2-(3,4,5-trimethoxy-phenyl)-ethyl]-3H-purin-6-ylamine] was tested. Which “% Inhibition” value did it give?
**A.** 6%

**Q.** For `COc1cc(CCn2cnc(N)c3nc(Sc4cc5c(cc4Br)OCO5)nc2-3)cc(OC)c1OC` [Example 92, 8-(6-bromo-benzo[1,3]dioxol-5-ylsulfanyl)-3-[2-(3,4,5-trimethoxy-phenyl)-ethyl]-3H-purin-6-ylamine], which “% Inhibition” value is on record?
**A.** 0%

**Q.** How did the “% Inhibition” value turn out when `Cc1cc(C)c(CCn2cnc(N)c3nc(Sc4cc5c(cc4Br)OCO5)nc2-3)c(C)c1` [Example 94, 8-(6-bromo-benzo[1,3]dioxol-5-ylsulfanyl)-3-[2-(2,4,6-trimethyl-phenyl)-ethyl]-3H-purin-6-ylamine] was run?
**A.** 0%

**Q.** How did the “% Inhibition” value turn out when `Nc1ncn(CC2(c3ccc(Cl)cc3)CCC2)c2nc(Sc3cc4c(cc3Br)OCO4)nc1-2` [Example 96, 8-(6-bromo-benzo[1,3]dioxol-5-ylsulfanyl)-3-[1-(4-chloro-phenyl)-cyclobutylmethyl]-3H-purin-6-ylamine] was run?
**A.** 2%

**Q.** Which “% Inhibition” value does the source give for `COc1ccc(OC)c(Sc2nc3c(N)ncn(CCc4ccc(Cl)cc4F)c-3n2)c1` [Example 98, 3-[2-(4-chloro-2-fluoro-phenyl)-ethyl]-8-(2,5-dimethoxy-phenylsulfanyl)-3H-purin-6-ylamine] here?
**A.** 0%

**Q.** How did the “% Inhibition” value turn out when `CCC(C)C(Cn1cnc(N)c2nc(Sc3cc4c(cc3Br)OCO4)nc1-2)c1ccccc1` (stereo not shown) [Example 100, 8-(6-bromo-benzo[1,3]dioxol-5-ylsulfanyl)-3-(3-methyl-2-phenyl-pentyl)-3H-purin-6-ylamine] was run?
**A.** 39%

**Q.** For `Nc1ncn(CC(c2ccccc2)C2CCCC2)c2nc(Sc3cc4c(cc3Br)OCO4)nc1-2` (stereo not shown) [Example 102, 8-(6-bromo-benzo[1,3]dioxol-5-ylsulfanyl)-3-(2-cyclopentyl-2-phenyl-ethyl)-3H-purin-6-ylamine], which “% Inhibition” value is on record?
**A.** 39%

**Q.** With `COc1ccc(OC)c(Sc2nc3c(N)ncn(CC(c4ccccc4)C4CCCC4)c-3n2)c1` (stereo not shown) [Example 104, 3-(2-cyclopentyl-2-phenyl-ethyl)-8-(2,5-dimethoxy-phenylsulfanyl)-3H-purin-6-ylamine] as the compound, how does the “% Inhibition” value read?
**A.** 38%

**Q.** With `CCC(C)C(Cn1cnc(N)c2nc(Sc3cc(OC)ccc3OC)nc1-2)c1ccccc1` (stereo not shown) [Example 106, 8-(2,5-dimethoxy-phenylsulfanyl)-3-(3-methyl-2-phenyl-pentyl)-3H-purin-6-ylamine] as the compound, how does the “% Inhibition” value read?
**A.** 41%

**Q.** Which “% Inhibition” value does the source give for `COc1ccc(OC)c(Sc2nc3c(N)ncnc3n2CC(O)c2ccc(Cl)cc2Cl)c1` (stereo not shown) [Example 107, 2-[6-Amino-8-(2,5-dimethoxy-phenylsulfanyl)-purin-9-yl]-1-(2,4-dichloro-phenyl)ethanol] here?
**A.** 0%

**Q.** How did the “% Inhibition” value turn out when `COc1ccc(OC)c(Sc2nc3c(N)ncn(CC(O)c4ccc(Cl)cc4Cl)c-3n2)c1` (stereo not shown) [Example 108, 2-[6-amino-8-(2,5-dimethoxy-phenylsulfanyl)-purin-3-yl]-1-(2,4-dichloro-phenyl)ethanol] was run?
**A.** 30%

Same assay, conditions: BODIPY-GM 10 nM, Hsp90 30 nM

**Q.** Which IC50 does the source give for `COc1ccc(OC)c(Sc2nc3c(N)ncnc3n2CCc2ccc(O)cc2)c1` [Example 75, 4-{2-[6-Amino-8-(2,5-dimethoxy-phenylsulfanyl)-purin-9-yl]-ethyl}-phenol] here?
**A.** 2900 nM

**Q.** How did the IC50 turn out when `COc1ccc(OC)c(Sc2nc3c(N)ncnc3n2CCc2cccc(Br)c2)c1` [Example 77, 9-[2-(3-Bromo-phenyl)-ethyl]-8-(2,5-dimethoxy-phenylsulfanyl)-9H-purin-6-ylamine] was run?
**A.** 1900 nM

**Q.** How did the IC50 turn out when `COc1ccc(OC)c(Sc2nc3c(N)ncnc3n2CCc2cccc(C(F)(F)F)c2)c1` [Example 79, 8-(2,5-Dimethoxy-phenylsulfanyl)-9-[2-(3-trifluoromethyl-phenyl)-ethyl]-9H-purin-6-ylamine] was run?
**A.** 300 nM

**Q.** How did the IC50 turn out when `COc1ccc(OC)c(Sc2nc3c(N)ncnc3n2Cc2ccc([N+](=O)[O-])cc2)c1` [Example 84, 8-(2,5-Dimethoxy-phenylsulfanyl)-9-(4-nitro-benzyl)-9H-purin-6-ylamine] was run?
**A.** > 5000 nM

**Q.** With `COc1ccc(OC)c(Sc2nc3c(N)ncnc3n2CCc2ccccc2OC)c1` [Example 85, 8-(2,5-Dimethoxy-phenylsulfanyl)-9-[2-(2-methoxy-phenyl)-ethyl]-9H-purin-6-ylamine] as the compound, how does the IC50 read?
**A.** 360 nM

**Q.** Which IC50 does the source give for `COc1ccc(OC)c(Sc2nc3c(N)ncn(CCc4ccccc4OC)c-3n2)c1` [Example 86, 8-(2,5-dimethoxy-phenylsulfanyl)-3-[2-(2-methoxy-phenyl)-ethyl]-3H-purin-6-ylamine] here?
**A.** > 5000 nM

**Q.** How did the IC50 turn out when `CCC(Cn1cnc(N)c2nc(Sc3cc(OC)ccc3OC)nc1-2)c1ccccc1` (stereo not shown) [Example 88] was run?
**A.** 1300 nM

**Q.** `COc1ccc(OC)c(Sc2nc3c(N)ncnc3n2CCc2cc(OC)c(OC)c(OC)c2)c1` [Example 89, 8-(2,5-Dimethoxy-phenylsulfanyl)-9-[2-(3,4,5-trimethoxy-phenyl)-ethyl]-9H-purin-6-ylamine] was tested. Which IC50 did it give?
**A.** > 10000 nM

**Q.** For `COc1cc(CCn2c(Sc3cc4c(cc3Br)OCO4)nc3c(N)ncnc32)cc(OC)c1OC` [Example 91, 8-(6-Bromo-benzo[1,3]dioxol-5-ylsulfanyl)-9-[2-(3,4,5-trimethoxy-phenyl)-ethyl]-9H-purin-6-ylamine], which IC50 is on record?
**A.** 200 nM

**Q.** With `Cc1cc(C)c(CCn2c(Sc3cc4c(cc3Br)OCO4)nc3c(N)ncnc32)c(C)c1` [Example 93, 8-(6-Bromo-benzo[1,3]dioxol-5-ylsulfanyl)-9-[2-(2,4,6-trimethyl-phenyl)-ethyl]-9H-purin-6-ylamine] as the compound, how does the IC50 read?
**A.** 190 nM

**Q.** With `Nc1ncnc2c1nc(Sc1cc3c(cc1Br)OCO3)n2CC1(c2ccc(Cl)cc2)CCC1` [Example 95, 8-(6-Bromo-benzo[1,3]dioxol-5-ylsulfanyl)-9-[1-(4-chloro-phenyl)-cyclobutylmethyl]-9H-purin-6-ylamine] as the compound, how does the IC50 read?
**A.** > 3000 nM

**Q.** For `COc1ccc(OC)c(Sc2nc3c(N)ncnc3n2CCc2ccc(Cl)cc2F)c1` [Example 97, 9-[2-(4-Chloro-2-fluoro-phenyl)-ethyl]-8-(2,5-dimethoxy-phenylsulfanyl)-9H-purin-6-ylamine], which IC50 is on record?
**A.** 450 nM

**Q.** How did the IC50 turn out when `CCC(C)C(Cn1c(Sc2cc3c(cc2Br)OCO3)nc2c(N)ncnc21)c1ccccc1` (stereo not shown) [Example 99, 8-(6-Bromo-benzo[1,3]dioxol-5-ylsulfanyl)-9-(3-methyl-2-phenyl-pentyl)-9H-purin-6-ylamine] was run?
**A.** 300 nM

**Q.** Which IC50 does the source give for `Nc1ncnc2c1nc(Sc1cc3c(cc1Br)OCO3)n2CC(c1ccccc1)C1CCCC1` (stereo not shown) [Example 101, 8-(6-Bromo-benzo[1,3]dioxol-5-ylsulfanyl)-9-(2-cyclopentyl-2-phenyl-ethyl)-9H-purin-6-ylamine] here?
**A.** > 3000 nM

**Q.** `COc1ccc(OC)c(Sc2nc3c(N)ncnc3n2CC(c2ccccc2)C2CCCC2)c1` (stereo not shown) [Example 103, 9-(2-Cyclopentyl-2-phenyl-ethyl)-8-(2,5-dimethoxy-phenylsulfanyl)-9H-purin-6-ylamine] was tested. Which IC50 did it give?
**A.** > 1000 nM

**Q.** How did the IC50 turn out when `CCC(C)C(Cn1c(Sc2cc(OC)ccc2OC)nc2c(N)ncnc21)c1ccccc1` (stereo not shown) [Example 105, 8-(2,5-Dimethoxy-phenylsulfanyl)-9-(3-methyl-2-phenyl-pentyl)-9H-purin-6-ylamine] was run?
**A.** > 1000 nM

**Q.** For `Nc1ncnc2c1nc(Sc1cc3c(cc1Br)OCO3)n2CCc1cccc(F)c1` [Example 109, 8-(6-Bromo-benzo[1,3]dioxol-5-ylsulfanyl)-9-[2-(3-fluoro-phenyl)-ethyl]-9H-purin-6-ylamine], which IC50 is on record?
**A.** 300 nM

— patent US7595401B2, “Therapeutic compounds and their use in cancer” (Myriad Pharmaceuticals, Inc., priority 2006, dated 2009)
